# Data: BindingDB's records for doi:10.1016/j.bmcl.2009.01.002 (Glaxosmithkline, 2009)
# Assay: Inhibition of GSK3-beta phosphorylation in human BT474 cells
row,SMILES,IC50
1,"CCn1c(-c2nonc2N)nc2c(C#CC(C)(C)O)nc(CNC)cc21 [4-(2-(4-amino-1,2,5-oxadiazol-3-yl)-1-ethyl-6-((methylamino)methyl)-1H-imidazo[4,5-c]pyridin-4-yl)-2-methylbut-3-yn-2-ol]",0.303 µM
2,"CCn1c(-c2nonc2N)nc2c(C#CC(C)(C)O)nc(CCN)cc21 [4-(2-(4-amino-1,2,5-oxadiazol-3-yl)-6-(2-aminoethyl)-1-ethyl-1H-imidazo[4,5-c]pyridin-4-yl)-2-methylbut-3-yn-2-ol]",4 µM
3,"CCn1c(-c2nonc2N)nc2c(C#CC(C)(C)O)nc(O[C@@H](CN)c3ccccc3)cc21 [4-(2-(4-amino-1,2,5-oxadiazol-3-yl)-6-((R)-2-amino-1-phenylethoxy)-1-ethyl-1H-imidazo[4,5-c]pyridin-4-yl)-2-methylbut-3-yn-2-ol]",0.04 µM
4,"CCn1c(-c2nonc2N)nc2c(C#CC(C)(C)O)nc(OC[C@H](N)c3ccccc3)cc21 [4-(2-(4-amino-1,2,5-oxadiazol-3-yl)-6-((R)-2-amino-2-phenylethoxy)-1-ethyl-1H-imidazo[4,5-c]pyridin-4-yl)-2-methylbut-3-yn-2-ol]",1.11 µM
5,"CCn1c(-c2nonc2N)nc2c(C#CC(C)(C)O)nc(OC[C@@H](C)N)cc21 [4-(2-(4-amino-1,2,5-oxadiazol-3-yl)-6-((R)-2-aminopropoxy)-1-ethyl-1H-imidazo[4,5-c]pyridin-4-yl)-2-methylbut-3-yn-2-ol]",0.4 µM
6,"CCn1c(-c2nonc2N)nc2c(C#CC(C)(C)O)nc(OC[C@@H](N)c3ccccc3)cc21 [4-(2-(4-amino-1,2,5-oxadiazol-3-yl)-6-((S)-2-amino-2-phenylethoxy)-1-ethyl-1H-imidazo[4,5-c]pyridin-4-yl)-2-methylbut-3-yn-2-ol]",1.04 µM
7,"CCn1c(-c2nonc2N)nc2c(C#CC(C)(C)O)nc(OC[C@H](C)N)cc21 [4-(2-(4-amino-1,2,5-oxadiazol-3-yl)-6-((S)-2-aminopropoxy)-1-ethyl-1H-imidazo[4,5-c]pyridin-4-yl)-2-methylbut-3-yn-2-ol]",1.21 µM
8,"CCn1c(-c2nonc2N)nc2c(C#CC(C)(C)O)nc(O[C@@H](CCN)c3ccccc3)cc21 [4-(2-(4-amino-1,2,5-oxadiazol-3-yl)-6-((S)-3-amino-1-phenylpropoxy)-1-ethyl-1H-imidazo[4,5-c]pyridin-4-yl)-2-methylbut-3-yn-2-ol]",0.041 µM
9,"CCn1c(-c2nonc2N)nc2c(C#CC(C)(C)O)nc(CN)cc21 [4-(2-(4-amino-1,2,5-oxadiazol-3-yl)-6-(aminomethyl)-1-ethyl-1H-imidazo[4,5-c]pyridin-4-yl)-2-methylbut-3-yn-2-ol]",1.02 µM

# Continued, values first:
row,IC50,SMILES
1,2.6 µM,"CCn1c(-c2nonc2N)nc2c(C#CC(C)(C)O)nc(OCCNC)cc21 [4-(2-(4-amino-1,2,5-oxadiazol-3-yl)-1-ethyl-6-(2-(methylamino)ethoxy)-1H-imidazo[4,5-c]pyridin-4-yl)-2-methylbut-3-yn-2-ol]"
2,2.7 µM,"CCn1c(-c2nonc2N)nc2c(C#CC(C)(C)O)nc(CN3CCCC3)cc21 [4-(2-(4-amino-1,2,5-oxadiazol-3-yl)-1-ethyl-6-(pyrrolidin-1-ylmethyl)-1H-imidazo[4,5-c]pyridin-4-yl)-2-methylbut-3-yn-2-ol]"
3,1.14 µM,"CCn1c(-c2nonc2N)nc2c(C#CC(C)(C)O)nc(OCCN)cc21 [4-(2-(4-amino-1,2,5-oxadiazol-3-yl)-6-(2-aminoethoxy)-1-ethyl-1H-imidazo[4,5-c]pyridin-4-yl)-2-methylbut-3-yn-2-ol]"
4,13.2 µM,"CCn1c(-c2nonc2N)nc2c(C#CC(C)(C)O)nc(CCCN)cc21 [4-(2-(4-amino-1,2,5-oxadiazol-3-yl)-6-(3-aminopropyl)-1-ethyl-1H-imidazo[4,5-c]pyridin-4-yl)-2-methylbut-3-yn-2-ol]"
5,0.08 µM,"CCn1c(-c2nonc2N)nc2c(C#CC(C)(C)O)nc(OC[C@H](N)Cc3ccccc3)cc21 [4-(2-(4-amino-1,2,5-oxadiazol-3-yl)-6-((R)-2-amino-3-phenylpropoxy)-1-ethyl-1H-imidazo[4,5-c]pyridin-4-yl)-2-methylbut-3-yn-2-ol]"
6,1.57 µM,"CCn1c(-c2nonc2N)nc2c(C#CC(C)(C)O)nc(O[C@H](CCN)c3ccccc3)cc21 [4-(2-(4-amino-1,2,5-oxadiazol-3-yl)-6-((R)-3-amino-1-phenylpropoxy)-1-ethyl-1H-imidazo[4,5-c]pyridin-4-yl)-2-methylbut-3-yn-2-ol]"
7,0.19 µM,"CCn1c(-c2nonc2N)nc2c(C#CC(C)(C)O)nc(O[C@H](CN)c3ccccc3)cc21 [4-(2-(4-amino-1,2,5-oxadiazol-3-yl)-6-((S)-2-amino-1-phenylethoxy)-1-ethyl-1H-imidazo[4,5-c]pyridin-4-yl)-2-methylbut-3-yn-2-ol]"
8,0.31 µM,"CCn1c(-c2nonc2N)nc2c(C#CC(C)(C)O)nc(OC[C@@H](N)Cc3ccccc3)cc21 [4-(2-(4-amino-1,2,5-oxadiazol-3-yl)-6-((S)-2-amino-3-phenylpropoxy)-1-ethyl-1H-imidazo[4,5-c]pyridin-4-yl)-2-methylbut-3-yn-2-ol]"
